Laboratory results from US11414424B2, “Cardiac sarcomere inhibitors” (Cytokinetics, Inc., priority 2018, dated 2022).

Tests used:
[1] = system: bovine cardiac myofibrils; test: Myofibril assay: PK/LDH-coupled steady-state ATPase activity of skinned bovine cardiac myofibrils; assay type: biochemical; conditions: Ca2+ activating to 75% of maximal rate
Method in brief: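 Steady-state ATPase of detergent-skinned bovine left-ventricular myofibrils (1 mg/mL), PK/LDH-coupled NADH read at 340 nm, in PIPES/MgCl2 buffer pH 6.8 with 50 μM ATP, 0.6 mM EGTA and CaCl2 set for 50% or 75% activation. Inhibition of activity measured.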

[2] = system: adult cardiac ventricular rat myocytes; test: Adult ventricular myocyte contractility (fractional shortening); assay type: cell-based; conditions: 5 min perfusion
Experimental: Adult male Sprague-Dawley rats were anesthetized and the hearts were quickly excised, rinsed and the ascending aorta was cannulated. Continuous retrograde perfusion was initiated on the hearts at a perfusion pressure of 60 cm H2O. Hearts were first perfused with a nominally Ca^2+-free modified Krebs solution of the following composition: 113 mM NaCl, 4.7 mM KCl, 0.6 mM KH2PO4, 0.6 mM Na2HPO4, 1.2 mM MgSO4, 12 mM NaHCO3, 10 mM KHCO3, 30 mM taurine, 5.5 mM glucose and 10 mM Hepes (all Sigma). This medium was not recirculated and was continually aerated with a 95% O2/5% CO2 mixture. After approximately 3 minutes, the heart was perfused with a modified Krebs buffer supplemented with collagenase (Worthington) and 12.5 μM final calcium concentration. The heart was removed from the cannulae after the heart appeared blanched and soft in appearance. The atria and vessels were removed and the ventricles were gently dissected into smaller pieces with forceps. The tissue was homogenized by repeated pipette trituration and the collagenase reaction was stopped by 10% bovine calf serum (BCS), sedimentation and resuspension in perfusion buffer containing 5% BCS and 12.5 uM CaCl2. Myocytes were made calcium tolerant by stepwise addition of a CaCl2 solution to a final concentration of 1.2 mM. Cells were then washed and resuspended in Tyrode's buffer (137 mM NaCl, 3.7 mM KCl, 0.5 mM MgCl, 11 mM glucose, 4 mM Hepes, and 1.2 mM CaCl2, pH 7.4). Cells were kept for 60 min at 37° C. prior to initiating experiments and used within 5 hrs of isolation. […] Additionally, only cells whose basal contractility was between 3 and 8% were used in subsequent experiments with compounds.
Aliquots of myocytes in Tyrode's buffer were placed in perfusion chambers (series 20 RC-27NE; Warner Instruments) complete with heating platforms. Myocytes were allowed to attach, the chambers were heated to 37° C., and the cells were perfused with 37° C. Tyrode's buffer. Myocytes were field stimulated at 1 Hz in with platinum electrodes (20% above threshold). Only cells that had clear striations and were quiescent prior to pacing were used for contractility experiments. To determine basal contractility, myocytes were imaged through a 40× objective. […] Once cell contraction was stable over time, test compounds (0.01-15 μM) were perfused into the chambers on the myocytes for 5 minutes. Contractility of the myocytes and contraction and relaxation velocities were then recorded using edge detection.
Five or more individual myocytes were tested per compound from two or more different myocyte preparations. For each cell, twenty or more contractility transients at basal (defined as 1 min prior to compound infusion) and after compound addition (defined as 5 min after starting compound perfusion), were averaged and compared. These average transients were analyzed using the IonWizard software (IonOptix) to determine changes in diastolic length and fractional shortening. Fractional shortening was calculated as: ((resting length−length at peak contraction) divided by the resting length). The percent change in fractional shortening from baseline was calculated as: ((post-dose fractional shortening/basal fractional shortening)*100). The percent reduction in fractional shortening from baseline was calculated as: (100−percent change in fractional shortening from baseline). Maximum contraction and relaxation velocities (um/sec) was also determined. Results from individual cells were averaged and the SEM was calculated.

male Sprague Dawley rats [3] = test: Echocardiography assessment of acute pharmacodynamic effect on rat cardiac contractility, oral dosing; assay type: in vivo
Experimental: (§1) Assessment of in vivo cardiac function by echocardiography was performed in male Sprague Dawley rats under isoflurane (1-3%) anesthesia. 2-D M-mode images of the left ventricle were acquired in the parasternal long-axis view before, during, and after administration of compounds by continuous IV infusion or oral gavage. In vivo fractional shortening was determined by M-mode image analysis with the following calculation: ((End diastolic diameter−end systolic diameter)/end diastolic diameter×100). For continuous IV infusion experiments, three pre-dose baseline M-mode images were taken at 1 minute intervals prior to infusion of compound. Compounds were formulated in 50% Propylene Glycol (PG): 16% Captisol: 10% dimethylacetamide (DMA) and delivered via a jugular vein catheter at the rate of 1 mL/kg/h. During infusion, M-mode images were taken at 5 minute intervals. The infusion was stopped when fractional shortening reached up to a 60% reduction from baseline. Blood samples were taken to determine the plasma concentration of the compounds. Data were reported as an estimated IC50 value, which is the concentration at which fractional shortening is 50% of the pre-dose baseline contractility.
For oral dosing studies, three pre-dose baseline M-Mode images were taken at 1 minute intervals prior to compound administration. Compounds were formulated in a 0.5% hydroxypropyl methylcellulose 2910 (HPMC 2910): 0.1% Tween 80 suspension and delivered as a single dose (5 mL/kg) by oral gavage. At one and four hours post-dose, rats were lightly anesthetized for M-mode echocardiography measurement. The compound effect on cardiac fractional shortening are presented as a percent reduction of baseline fractional shortening (=100%) in Table D.
Concurrent with echocardiography measurements, blood samples are taken to determine the corresponding compound plasma concentration, which may be represented as IC50 and IC10 values, which is the concentration at which fractional shortening is 50% and 10% of the pre-dose baseline contractility, respectively.

male Sprague Dawley rats [4] = test: Echocardiography assessment of acute pharmacodynamic effect on rat cardiac contractility, continuous IV infusion; assay type: in vivo; conditions: estimated plasma concentration at which fractional shortening is 50% of the pre-dose baseline contractility, read-out: IC50 (mean ± SD)
Experimental: as §1

Compound	CDMF75 IC15 [1] [nM]	% FS (% reduction from baseline) ± SEM ([2]; 5 μM) [%]	FS (% reduction from baseline) at 1 h (Mean ± SEM) (male Sprague Dawley rats [3]; 3 mg/kg oral) [%]	FS (% reduction from baseline) at 4 h (Mean ± SEM) (male Sprague Dawley rats [3]; 3 mg/kg oral) [%]	other results
CC(C)N1CC(=O)N(Cc2ccc(Cl)cc2)C(c2ccc(Cl)cc2)C1=O (single isomer, unassigned) [Compound 288A, 3-(4-chlorophenyl)-4-[(4-chlorophenyl)methyl]-1-(propan-2-yl)piperazine-2,5-dione]	800	64.4 ± 9.7			
CNC(=O)N1CC2(C1)C(=O)N(c1ccc(Cl)cc1)CC(=O)N2Cc1ccc(C(F)(F)F)cc1 [Compound 150, 8-(4-chlorophenyl)-N-methyl-6,9-dioxo-5-(4-(trifluoromethyl)benzyl)-2,5,8-triazaspiro[3.5]-nonane-2-carboxamide]	1100				IC50 (male Sprague Dawley rats [4]): 5440 ± 120 nM
N#Cc1ccc(N2CC(=O)N(Cc3ccc(C(F)(F)F)cc3)C3(CN(C=O)C3)C2=O)c(F)c1 [Compound 179, 3-fluoro-4-(2-formyl-6,9-dioxo-5-(4-(trifluoro-methyl)benzyl)-2,5,8-triazaspiro[3.5]nonan-8-yl)benzonitrile]	300		33.8 ± 2.6	4.5 ± 4.2	FS (% reduction from baseline) at 1 h (Mean ± SEM) (male Sprague Dawley rats [3]; 6 mg/kg oral): 51.9 ± 4.0%; FS (% reduction from baseline) at 4 h (Mean ± SEM) (male Sprague Dawley rats [3]; 6 mg/kg oral): 15.0 ± 5.4%
CC(=O)N1CC2(C1)C(=O)N(c1ccc(C#N)cc1F)CC(=O)N2Cc1ccc(C(F)(F)F)cc1 [Compound 202, 4-(2-acetyl-6,9-dioxo-5-[[4-(trifluoromethyl)phenyl]methyl]-2,5,8-triazaspiro[3.5]nonan-8-yl)-3-fluorobenzonitrile]	800	68.4 ± 9.5	21.88 ± 2.66	11.25 ± 5.54	FS (% reduction from baseline) at 1 h (Mean ± SEM) (male Sprague Dawley rats [3]; 15 mg/kg oral): 51.08 ± 1.93%; FS (% reduction from baseline) at 4 h (Mean ± SEM) (male Sprague Dawley rats [3]; 15 mg/kg oral): 20.18 ± 3.59%; IC50 (male Sprague Dawley rats [4]): 3240 ± 70 nM
CC(=O)N1CC[C@]2(C1)C(=O)N(c1ccc(C#N)cc1F)CC(=O)N2Cc1ccc(Cl)cc1 [Compound 206, (S)-4-(2-acetyl-6-(4-chlorobenzyl)-7,10-dioxo-2,6,9-triazaspiro[4.5]decan-9-yl)-3-fluorobenzonitrile]	500				% FS (% reduction from baseline) ± SEM ([2]; 10 μM): 95.1 ± 1.6%
N#Cc1ccc(N2CC(=O)N(Cc3ccc(C(F)(F)F)cc3)C3(CC3)C2=O)c(F)c1 [Compound 278, 4-(5,8-dioxo-4-(4-(trifluoromethyl)benzyl)-4,7-diazaspiro[2.5]octan-7-yl)-3-fluorobenzonitrile]	500		15.8 ± 2.0	10.6 ± 5.6	FS (% reduction from baseline) at 1 h (Mean ± SEM) (male Sprague Dawley rats [3]; 6 mg/kg oral): 34.4 ± 3.3%; FS (% reduction from baseline) at 4 h (Mean ± SEM) (male Sprague Dawley rats [3]; 6 mg/kg oral): 12.2 ± 4.2%
CC(=O)N1CC2(C1)C(=O)N(c1ccc(C#N)cc1F)CC(=O)N2[C@@H](C)c1ccc(C(F)(F)F)cc1 [Compound 339, (S)-4-(2-acetyl-6,9-dioxo-5-(1-(4-(trifluoromethyl)phenyl)ethyl)-2,5,8-triazaspiro[3.5]nonan-8-yl)-3-fluorobenzonitrile]	500				FS (% reduction from baseline) at 1 h (Mean ± SEM) (male Sprague Dawley rats [3]; 2.5 mg/kg oral): 21.8 ± 2.8%; FS (% reduction from baseline) at 4 h (Mean ± SEM) (male Sprague Dawley rats [3]; 2.5 mg/kg oral): 5.8 ± 4.4%; FS (% reduction from baseline) at 1 h (Mean ± SEM) (male Sprague Dawley rats [3]; 5 mg/kg oral): 66.2 ± 2.9%; FS (% reduction from baseline) at 4 h (Mean ± SEM) (male Sprague Dawley rats [3]; 5 mg/kg oral): 19.9 ± 2.0%

Now from value to molecule, other results behind:

CDMF75 IC15 [1] [nM]	Compound	% FS (% reduction from baseline) ± SEM ([2]; 5 μM) [%]	FS (% reduction from baseline) at 1 h (Mean ± SEM) (male Sprague Dawley rats [3]; 3 mg/kg oral) [%]	FS (% reduction from baseline) at 4 h (Mean ± SEM) (male Sprague Dawley rats [3]; 3 mg/kg oral) [%]	other results
400	CC(C)N1CC(=O)N(Cc2ccc(Cl)cc2)C2(CCN(c3ccccn3)C2)C1=O (single isomer, unassigned) [Compound 373A, 6-[(4-chlorophenyl)methyl]-9-(propan-2-yl)-2-(pyridin-2-yl)-2,6,9-triazaspiro[4.5]decane-7,10-dione]				% FS (% reduction from baseline) ± SEM ([2]; 10 μM): 76.6 ± 8.8%
1000	O=C1C(C2COC2)N(Cc2ccc(C(F)(F)F)cc2)C(=O)CN1c1ncc(Cl)cc1F (single isomer, unassigned) [Compound 861A, 1-(5-chloro-3-fluoropyridin-2-yl)-3-(oxetan-3-yl)-4-(4-(trifluoromethyl)benzyl)piperazine-2,5-dione]	88.0 ± 3.31			FS (% reduction from baseline) at 1 h (Mean ± SEM) (male Sprague Dawley rats [3]; 10 mg/kg oral): 13.4 ± 1.6%; FS (% reduction from baseline) at 4 h (Mean ± SEM) (male Sprague Dawley rats [3]; 10 mg/kg oral): 2.0 ± 3.1%; FS (% reduction from baseline) at 1 h (Mean ± SEM) (male Sprague Dawley rats [3]; 100 mg/kg oral): 50.0 ± 4.0%; FS (% reduction from baseline) at 4 h (Mean ± SEM) (male Sprague Dawley rats [3]; 100 mg/kg oral): 48.8 ± 5.0%
